Reference: ChEMBL document CHEMBL5236661, “A new selective inhibitor for IMP-1 metallo-β-lactamase, 3Z,5E-octa-3,5-diene-1,3,4-tricarboxylic acid-3,4-anhydride” (Bioorg Med Chem, 2023)
In brackets after ≈: the same amount, converted by molar mass. Activity calls are given as the source filed them. The rule behind the calls is not given here.

Molecular target: not listed separately
Test: Inhibition of bacterial Metallo-beta-lactamase IMP-1 using nitrocefin as substrate pre-incubated for 15 mins followed by substrate addition by microplate reader
Design: species or system Bacteria
Conditions: not given

| IC50 [µg/mL] | Structure (SMILES) |
| --- | --- |
| 4.3 (≈ 18 µM) | CC/C=C/C1=C(CCC(=O)OC)C(=O)OC1=O |

Tested on: Escherichia coli
Test: Antibacterial activity against Escherichia coli KB366 expressing IMP-1 assessed as inhibition of bacterial growth at 100 ug in presence of meropenem incubated overnight by paper disk method
Assay type: functional
Conditions: read-out: IZ

| Structure (SMILES) | zone of inhibition at 100 µg/disc [mm] |
| --- | --- |
| CC/C=C/C1=C(CCC(=O)OC)C(=O)OC1=O | 33 |

Tested on: Escherichia coli
Test: Antibacterial activity against Escherichia coli KB366 expressing IMP-1 assessed as inhibition of bacterial growth at 30 ug in presence of meropenem incubated overnight by paper disk method
Assay type: functional
Conditions: read-out: IZ

| Structure (SMILES) | zone of inhibition at 30 µg/disc [mm] |
| --- | --- |
| CC/C=C/C1=C(CCC(=O)OC)C(=O)OC1=O | 28 |

Tested on: Escherichia coli
Test: Antibacterial activity against Escherichia coli KB366 expressing IMP-1 assessed as inhibition of bacterial growth at 10 ug in presence of meropenem incubated overnight by paper disk method
Assay type: functional
Conditions: read-out: IZ

| Structure (SMILES) | zone of inhibition at 10 µg/disc [mm] |
| --- | --- |
| CC/C=C/C1=C(CCC(=O)OC)C(=O)OC1=O | 26 |

Tested on: Escherichia coli
Test: Antibacterial activity against Escherichia coli KB366 expressing IMP-1 assessed as inhibition of bacterial growth at 3 ug in presence of meropenem incubated overnight by paper disk method
Assay type: functional
Conditions: read-out: IZ

| Structure (SMILES) | zone of inhibition at 3 µg/disc [mm] |
| --- | --- |
| CC/C=C/C1=C(CCC(=O)OC)C(=O)OC1=O | 23 |

Tested on: Escherichia coli
Test: Antibacterial activity against Escherichia coli KB366 expressing IMP-1 assessed as inhibition of bacterial growth at 1 ug in presence of meropenem incubated overnight by paper disk method
Assay type: functional
Conditions: read-out: IZ

| Structure (SMILES) | zone of inhibition at 1 µg/disc [mm] |
| --- | --- |
| CC/C=C/C1=C(CCC(=O)OC)C(=O)OC1=O | 19 |

Tested on: Escherichia coli
Test: Antibacterial activity against Escherichia coli KB366 expressing IMP-1 assessed as inhibition of bacterial growth at 0.3 ug in presence of meropenem incubated overnight by paper disk method
Assay type: functional
Conditions: dose 0.3 µg

| Structure (SMILES) | inhibition zone (IZ) |
| --- | --- |
| CC/C=C/C1=C(CCC(=O)OC)C(=O)OC1=O | inactive |

Tested on: Escherichia coli
Test: Antibacterial activity against Escherichia coli KB366 expressing IMP-1 assessed as inhibition of bacterial growth at 0.1 ug in presence of meropenem incubated overnight by paper disk method
Assay type: functional
Conditions: dose 0.1 µg

| Structure (SMILES) | inhibition zone (IZ) |
| --- | --- |
| CC/C=C/C1=C(CCC(=O)OC)C(=O)OC1=O | inactive |

Tested on: Escherichia coli
Test: Antibacterial activity against Escherichia coli KB366 expressing IMP-1 assessed as inhibition of bacterial growth at 100 ug in absence of meropenem incubated overnight by paper disk method
Assay type: functional, organism-based
Conditions: dose 100.0 µg

| Structure (SMILES) | inhibition zone (IZ) |
| --- | --- |
| CC/C=C/C1=C(CCC(=O)OC)C(=O)OC1=O | inactive |

Tested on: Escherichia coli
Test: Antibacterial activity against Escherichia coli KB366 expressing IMP-1 assessed as inhibition of bacterial growth at 30 ug in absence of meropenem incubated overnight by paper disk method
Assay type: functional, organism-based
Conditions: dose 30.0 µg

| Structure (SMILES) | inhibition zone (IZ) |
| --- | --- |
| CC/C=C/C1=C(CCC(=O)OC)C(=O)OC1=O | inactive |

Tested on: Escherichia coli
Test: Antibacterial activity against Escherichia coli KB366 expressing IMP-1 assessed as inhibition of bacterial growth at 10 ug in absence of meropenem incubated overnight by paper disk method
Assay type: functional, organism-based
Conditions: dose 10.0 µg

| Structure (SMILES) | inhibition zone (IZ) |
| --- | --- |
| CC/C=C/C1=C(CCC(=O)OC)C(=O)OC1=O | inactive |

Tested on: Escherichia coli
Test: Antibacterial activity against Escherichia coli KB366 expressing IMP-1 assessed as inhibition of bacterial growth at 3 ug in absence of meropenem incubated overnight by paper disk method
Assay type: functional, organism-based
Conditions: dose 3.0 µg

| Structure (SMILES) | inhibition zone (IZ) |
| --- | --- |
| CC/C=C/C1=C(CCC(=O)OC)C(=O)OC1=O | inactive |

Tested on: Escherichia coli
Test: Antibacterial activity against Escherichia coli KB366 expressing IMP-1 assessed as inhibition of bacterial growth at 1 ug in absence of meropenem incubated overnight by paper disk method
Assay type: functional, organism-based
Conditions: dose 1.0 µg

| Structure (SMILES) | inhibition zone (IZ) |
| --- | --- |
| CC/C=C/C1=C(CCC(=O)OC)C(=O)OC1=O | inactive |

Tested on: Escherichia coli
Test: Antibacterial activity against Escherichia coli KB366 expressing IMP-1 assessed as inhibition of bacterial growth at 0.3 ug in absence of meropenem incubated overnight by paper disk method
Assay type: functional, organism-based
Conditions: dose 0.3 µg

| Structure (SMILES) | inhibition zone (IZ) |
| --- | --- |
| CC/C=C/C1=C(CCC(=O)OC)C(=O)OC1=O | inactive |

Tested on: Escherichia coli
Test: Antibacterial activity against Escherichia coli KB366 expressing IMP-1 assessed as inhibition of bacterial growth at 0.1 ug in absence of meropenem incubated overnight by paper disk method
Assay type: functional, organism-based
Conditions: dose 0.1 µg

| Structure (SMILES) | inhibition zone (IZ) |
| --- | --- |
| CC/C=C/C1=C(CCC(=O)OC)C(=O)OC1=O | inactive |

Tested on: Pseudomonas aeruginosa
Test: Antibacterial activity against Pseudomonas aeruginosa KB367 expressing IMP-1 assessed as inhibition of bacterial growth at 100 ug in presence of meropenem incubated overnight by paper disk method
Assay type: functional
Conditions: read-out: IZ

| Structure (SMILES) | zone of inhibition at 100 µg/disc [mm] |
| --- | --- |
| CC/C=C/C1=C(CCC(=O)OC)C(=O)OC1=O | 20 |

Tested on: Pseudomonas aeruginosa
Test: Antibacterial activity against Pseudomonas aeruginosa KB367 expressing IMP-1 assessed as inhibition of bacterial growth at 30 ug in presence of meropenem incubated overnight by paper disk method
Assay type: functional
Conditions: read-out: IZ

| Structure (SMILES) | zone of inhibition at 30 µg/disc [mm] |
| --- | --- |
| CC/C=C/C1=C(CCC(=O)OC)C(=O)OC1=O | 16 |

Tested on: Pseudomonas aeruginosa
Test: Antibacterial activity against Pseudomonas aeruginosa KB367 expressing IMP-1 assessed as inhibition of bacterial growth at 10 ug in presence of meropenem incubated overnight by paper disk method
Assay type: functional
Conditions: read-out: IZ

| Structure (SMILES) | zone of inhibition at 10 µg/disc [mm] |
| --- | --- |
| CC/C=C/C1=C(CCC(=O)OC)C(=O)OC1=O | 11 |

Tested on: Pseudomonas aeruginosa
Test: Antibacterial activity against Pseudomonas aeruginosa KB367 expressing IMP-1 assessed as inhibition of bacterial growth at 3 ug in presence of meropenem incubated overnight by paper disk method
Assay type: functional
Conditions: read-out: IZ

| Structure (SMILES) | zone of inhibition at 3 µg/disc [mm] |
| --- | --- |
| CC/C=C/C1=C(CCC(=O)OC)C(=O)OC1=O | 9 |

Tested on: Pseudomonas aeruginosa
Test: Antibacterial activity against Pseudomonas aeruginosa KB367 expressing IMP-1 assessed as inhibition of bacterial growth at 1 ug in presence of meropenem incubated overnight by paper disk method
Assay type: functional
Conditions: dose 1.0 µg

| Structure (SMILES) | inhibition zone (IZ) |
| --- | --- |
| CC/C=C/C1=C(CCC(=O)OC)C(=O)OC1=O | inactive |

Tested on: Pseudomonas aeruginosa
Test: Antibacterial activity against Pseudomonas aeruginosa KB367 expressing IMP-1 assessed as inhibition of bacterial growth at 0.3 ug in presence of meropenem incubated overnight by paper disk method
Assay type: functional, organism-based
Conditions: dose 0.3 µg

| Structure (SMILES) | inhibition zone (IZ) |
| --- | --- |
| CC/C=C/C1=C(CCC(=O)OC)C(=O)OC1=O | inactive |

Tested on: Pseudomonas aeruginosa
Test: Antibacterial activity against Pseudomonas aeruginosa KB367 expressing IMP-1 assessed as inhibition of bacterial growth at 0.1 ug in presence of meropenem incubated overnight by paper disk method
Assay type: functional, organism-based
Conditions: dose 0.1 µg

| Structure (SMILES) | inhibition zone (IZ) |
| --- | --- |
| CC/C=C/C1=C(CCC(=O)OC)C(=O)OC1=O | inactive |

Tested on: Pseudomonas aeruginosa
Test: Antibacterial activity against Pseudomonas aeruginosa KB367 expressing IMP-1 assessed as inhibition of bacterial growth at 100 ug in absence of meropenem incubated overnight by paper disk method
Assay type: functional, organism-based
Conditions: dose 100.0 µg

| Structure (SMILES) | inhibition zone (IZ) |
| --- | --- |
| CC/C=C/C1=C(CCC(=O)OC)C(=O)OC1=O | inactive |

Tested on: Pseudomonas aeruginosa
Test: Antibacterial activity against Pseudomonas aeruginosa KB367 expressing IMP-1 assessed as inhibition of bacterial growth at 30 ug in absence of meropenem incubated overnight by paper disk method
Assay type: functional, organism-based
Conditions: dose 30.0 µg

| Structure (SMILES) | inhibition zone (IZ) |
| --- | --- |
| CC/C=C/C1=C(CCC(=O)OC)C(=O)OC1=O | inactive |

Tested on: Pseudomonas aeruginosa
Test: Antibacterial activity against Pseudomonas aeruginosa KB367 expressing IMP-1 assessed as inhibition of bacterial growth at 10 ug in absence of meropenem incubated overnight by paper disk method
Assay type: functional, organism-based
Conditions: dose 10.0 µg

| Structure (SMILES) | inhibition zone (IZ) |
| --- | --- |
| CC/C=C/C1=C(CCC(=O)OC)C(=O)OC1=O | inactive |

Tested on: Pseudomonas aeruginosa
Test: Antibacterial activity against Pseudomonas aeruginosa KB367 expressing IMP-1 assessed as inhibition of bacterial growth at 3 ug in absence of meropenem incubated overnight by paper disk method
Assay type: functional, organism-based
Conditions: dose 3.0 µg

| Structure (SMILES) | inhibition zone (IZ) |
| --- | --- |
| CC/C=C/C1=C(CCC(=O)OC)C(=O)OC1=O | inactive |

Tested on: Pseudomonas aeruginosa
Test: Antibacterial activity against Pseudomonas aeruginosa KB367 expressing IMP-1 assessed as inhibition of bacterial growth at 1 ug in absence of meropenem incubated overnight by paper disk method
Assay type: functional, organism-based
Conditions: dose 1.0 µg

| Structure (SMILES) | inhibition zone (IZ) |
| --- | --- |
| CC/C=C/C1=C(CCC(=O)OC)C(=O)OC1=O | inactive |

Tested on: Pseudomonas aeruginosa
Test: Antibacterial activity against Pseudomonas aeruginosa KB367 expressing IMP-1 assessed as inhibition of bacterial growth at 0.3 ug in absence of meropenem incubated overnight by paper disk method
Assay type: functional, organism-based
Conditions: dose 0.3 µg

| Structure (SMILES) | inhibition zone (IZ) |
| --- | --- |
| CC/C=C/C1=C(CCC(=O)OC)C(=O)OC1=O | inactive |

Tested on: Pseudomonas aeruginosa
Test: Antibacterial activity against Pseudomonas aeruginosa KB367 expressing IMP-1 assessed as inhibition of bacterial growth at 0.1 ug in absence of meropenem incubated overnight by paper disk method
Assay type: functional, organism-based
Conditions: dose 0.1 µg

| Structure (SMILES) | inhibition zone (IZ) |
| --- | --- |
| CC/C=C/C1=C(CCC(=O)OC)C(=O)OC1=O | inactive |
